This is an account of results in patent publication US20240000863A1, “Skin Probiotics” (The Regents of the University of California, priority 2021, published 2024).

One experiment concerns the target T1, KLK5 (Homo sapiens, UniProt Q9Y337).
T1 sequence (Q9Y337 23-293): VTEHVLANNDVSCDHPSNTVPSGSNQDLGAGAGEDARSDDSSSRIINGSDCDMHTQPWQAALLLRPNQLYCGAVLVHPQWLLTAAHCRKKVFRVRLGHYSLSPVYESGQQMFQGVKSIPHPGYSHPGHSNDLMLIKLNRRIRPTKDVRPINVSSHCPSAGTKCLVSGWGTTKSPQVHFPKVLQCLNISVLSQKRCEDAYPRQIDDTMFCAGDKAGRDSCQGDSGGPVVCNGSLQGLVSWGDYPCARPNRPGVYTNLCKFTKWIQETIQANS
Nature of the experiment: KLK5 inhibition assay (Acetyl-YASR-paranitroanilide, absorbance 405 nm). The experiment is classed as biochemical. The note with it: over 30 minutes; leupeptin at 100 uM. As for the experimental part: The KLK5 inhibition assay is the foremost method to determine inhibition of KLK5. In the assay, KLK5 is incubated with the substrate Acetyl-YASR-paranitroanilide Uninhibited, KLK5 cleaves the substrate Acetyl-YASR at the arginine position […], releasing para-nitroanilide, a chromophore with absorbance 405 nm, resulting in increased absorption at that wavelength. When inhibited, the substrate Acetyl-YASR-paranitroanilide remains intact, and there is no increase in absorption at 405 nm. As a positive control, we used the absence of any inhibitor and the addition of purified Red Fluorescent Protein (RFP). As negative controls, we used a substrate only addition (no KLK5 is added) as well as a 100 uM addition of purified leupeptin, which is known to inhibit KLK5 at high concentrations.

The target of experiment [1] is T2, KLK5 protein (kallikrein 5) (UniProt Q9Y337 67-293, limits assumed).
T2 sequence (looked up): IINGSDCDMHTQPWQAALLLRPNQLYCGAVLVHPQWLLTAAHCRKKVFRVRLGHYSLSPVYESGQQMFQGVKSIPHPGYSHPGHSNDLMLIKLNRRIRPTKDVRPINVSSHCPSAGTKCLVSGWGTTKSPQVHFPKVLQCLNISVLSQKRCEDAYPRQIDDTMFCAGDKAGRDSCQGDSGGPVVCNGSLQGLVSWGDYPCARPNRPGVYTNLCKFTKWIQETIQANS
Nature of the experiment: cell-based or functional assay.

As to `CC(=O)N[C@@H](CC(C)C)C(=O)N[C@@H](CC(C)C)C(=O)N[C@H](C=O)CCCNC(=N)N` [leupeptin], at KLK5, the “change of absorbance at 405 nm” value is reported as “very little increasing absorbance”.

B1: LEKTI-D6 protein (lymphoepithelial Kazal-Type-related protease inhibitor, domain 6), secreted by C. glutamicum and purified (other)
chain: MESGKATSYAELCNEYRKLVRNGKLACTRENDPIQGPDGKVHGNTCSMCEVFFQAEEEEKKKKEGESRNKR
As for B1, the “KLK5 inhibition assay (cleavage of Acetyl-YASR-paranitroanilide, absorbance at 405 nm), IC50” value in experiment [1] stood at 89 nM.
